Assay results from patent US20190000847A1, “THERAPEUTIC AGENT FOR A WOUND” (DAIICHI SANKYO COMPANY LIMITED, priority 2015, published 2019).
Like-named read-outs stand apart in the source and are kept apart here.

Tests used:
db/db mice [1] = details: male db/db mice, 8 mm full thickness skin wound
Description: A full thickness skin wound was prepared on the backs of 9-week-old male db/db mice. The back of each mouse was shaved with an electric shaver under isoflurane anesthesia, and a full thickness skin wound of 8 mm in diameter was created on the back with a disposable biopsy punch. Compound A was administered dropwise (0.04 mL per wound site) at a concentration of 0.5 mM to the wound site once a day over 4 days from the wound creation date and protected with a dressing (Tegaderm Transparent Dressing). The negative control used was a test substance solubilizing solvent (10% Lutrol F127, 2% propylene glycol, 20 mM Tris buffer (pH 8.5)). 1, 4, 7, 9, 11, 15, and 18 days after the wound creation date, the wound site was photographed with a digital camera, and the wound area was calculated using image analysis software. When the wound area of the wound creation date was defined as 100%, the area at each day of photographing was calculated in terms of the percentage (%) of the area of the wound creation date. The test was conducted with 8 animals per group.

SD rats = details: male SD rats
Description: Pressure ulcer was created by pressure load on the right third trochanters of 8-week-old male SD rats. The skin on the right third trochanter of each rat was shaved with an electric shaver. A pressure of 902.3 to 911.2 g/cm^2 was loaded on the right third trochanter for 24 hours under anesthesia with pentobarbital and allobarbital. 2 days after cancellation of the pressure load, necrotic tissues were surgically removed under isoflurane anesthesia. When the necrotic tissue removal date was defined as day 1, compound A was administered dropwise (0.02 to 0.06 mL per wound site) at a concentration of 0.5 mM to the wound site once a day and protected with gauze and a waterproof film. The negative control used was a test substance solubilizing solvent (10% Lutrol F127, 2% propylene glycol, 20 mM Tris buffer (pH 8.5)). The major axis and minor axis of the wound surface were measured every day with a vernier caliper, and the wound area (major axis×minor axis) was calculated. When the wound area of day 1 was defined as 100%, the calculated area at each day was calculated in terms of the percentage (%) of the area of the wound creation date. The test was conducted with 10 animals per group.

db/db mice [2] = test: Test Example 2: wound healing experiment, full thickness skin wound; assay type: in vivo; details: male db/db mice; for area under the curve (AUC) of the percent wound area / number of days required for 50% reduction in the percent wound area / 75% healing rate (proportion of individuals that achieved 75% or more reduction in the percent wound area at day 14): full thickness skin wound; for area under the curve (AUC) of the percent wound area: 0.15 mM dropwise; for number of days required for 50% reduction in the percent wound area / 75% healing rate (proportion of individuals that achieved 75% or more reduction in the percent wound area at day 14): compound B 0.15 mM dropwise; for number of days required for 50% reduction in the percent wound area: bFGF sprayed five times (approx. 30 μg), negative control 11.0 days (FIG. 4B); for 75% healing rate (proportion of individuals that achieved 75% or more reduction in the percent wound area at day 14): bFGF spray, negative control 16.7% (FIG. 4C)
Description: A positive control bFGF (trafermin (genetic recombination) formulation, Fiblast(trademark) spray) approved as a therapeutic agent for pressure ulcer and skin ulcer was sprayed five times (approximately 30 μg was administered per 6 cm in diameter) to the wound site from approximately 5 cm apart according to the dose regimen. […] The test was conducted with 6 animals per group.

## Cc1nc(CC2CCN(c3ccc(-c4ccc(CO)cc4)cc3)CC2)nc(C(=O)NCC(=O)O)c1O [Compound A]
db/db mice [1]; 0.5 mM dropwise 0.04 mL per wound site once a day over 4 days, days 1-18, vs negative control (FIG. 1)
  time-dependent change in the percent wound area: reduced the percent wound area at each point of evaluation, as compared with the negative control
db/db mice [1]; 0.5 mM dropwise once a day over 4 days, vs negative control (FIG. 2)
  area under the curve (AUC) of the percent wound area: low value as compared with AUC of the negative control group
SD rats; pressure ulcer on right third trochanter, 0.5 mM dropwise 0.02 to 0.06 mL per wound site once a day, vs negative control (FIG. 5)
  time dependent change in the percent wound area: reduced the percent wound area at each point of evaluation, as compared with the negative control
SD rats; pressure ulcer, 0.5 mM dropwise once a day, negative control 25.3 days (FIG. 6B)
  number of days required for healing: 21.5 days
SD rats; pressure ulcer, 0.5 mM dropwise once a day, vs negative control (FIG. 6A)
  area under the curve (AUC) of the percent wound area: low value as compared with AUC of the negative control group
SD rats; pressure ulcer, 0.5 mM dropwise once a day, vs negative control (FIG. 6C)
  time dependent change in the healing rate (complete healing rate): significant elevation in the healing rate as compared with the negative control group

## Cc1nc(CC2CCN(c3ccc(-c4ccc(C[C@H](C)O)cc4)cc3)CC2)nc(C(=O)NCC(=O)O)c1O [Compound B, [({5-Hydroxy-2-[(1-{4′-[(2S)-2-hydroxypropyl]biphenyl-4-yl}piperidin-4-yl)methyl]-6-methylpyrimidin-4-yl}carbonyl)amino]acetic acid]
db/db mice [2]; 8 mm full thickness skin wound, 0.15 mM dropwise 0.04 mL per wound site at days 1, 2, 4, 7, 10, 14, 17, 22, vs negative control (FIG. 3)
  time dependent change in the percent wound area: reduced the percent wound area at each point of evaluation, as compared with the negative control
db/db mice [2]; compared with negative control group (FIG. 4A)
  area under the curve (AUC) of the percent wound area: low value as compared with AUC of the negative control group
db/db mice [2]; compared with positive control bFGF administration group (FIG. 4A)
  area under the curve (AUC) of the percent wound area: low value as compared with the positive control bFGF administration group
db/db mice [2]
  number of days required for 50% reduction in the percent wound area: 9.2 days
  75% healing rate (proportion of individuals that achieved 75% or more reduction in the percent wound area at day 14): 83.3%

## bFGF: positive control bFGF (trafermin (genetic recombination) formulation, Fiblast spray) approved as a therapeutic agent for pressure ulcer and skin ulcer
db/db mice [2]
  number of days required for 50% reduction in the percent wound area: 10.2 days
  75% healing rate (proportion of individuals that achieved 75% or more reduction in the percent wound area at day 14): 50.0%
